Here are results for four compounds from US7569221B2, “Compositions and methods for identifying agents that alter expression of survivin” (Health Research, Inc., priority 2006, dated 2009).

The test system of data set [1] is human survivin promoter. In words: luciferase activity assay in cancer cell clones stably transfected with pNeoHScyc4.08-luc. The class given is cell-based. As for the experimental part: Methods for transfection, G418 selection, single clone isolation and amplification: Cells were first tested for G418 resistance with a series of G418 concentrations. For transfection, cells were seeded in a 6-well cell culture plate, one day before transfection, to a cell concentration in which cell would grow into 40-70% confluence on the second day for transfection. Cells were transfected with the Sal I-linearized pNeoHScyc4.08-luc or pNeoHS4.04-luc using LIPOFECTAMINE™ 2000 (INVITROGEN). Briefly, 1-2 μg (dependent on cell transfection efficiency) of the linearized plasmid DNA in 100 μl serum-free DMEM were mixed with 1.5-3 μl Lipofectamine™ 2000 in 100 μl serum-free DMEM in a 1.5-ml tube for each well of 6-well plates. After incubation at room temperature for 20-25 minutes, the DNA/Lipofectamine™ 2000 mixture was added to each well containing 500 μl serum-free DMEM medium in the 6-well plate. […]
Methods for measuring luciferase activity and isolation of the correct cell clones: For luciferase assays, the Luciferase Reporter Assay System (PROMEGA) was used. […] Luciferase activity for each cell clones was determined every 4-5 sub-culture/passing. […]
Therefore, we used Hedamycin as a positive control to test our genetically modified cancer cell models. […] After cells were treated with 10 nM hedamycin for 16-24 hours, cells were lysed and luciferase activity was measured as described above. […]

Data set [2] concerns cancer cells. In words: cell death of treated cancer cells. Format: cell-based.
For data set [3], the system named is survivin. In words: survivin expression and survivin promoter activity in cancer cells (earlier work). To be noted: binds to the survivin promoter. Format: cell-based, human.
Data set [4] has as its system survivin. The conditions noted are these: cancer cells; reference 15; cited from earlier work.
For data set [5], the system named is human survivin promoter. Put plainly: in vivo luciferase imaging of castrated SPlucTg male mice after androgen treatment. Also noted: species or system mouse. The conditions noted are these: testosterone pills imbedded 14 days after castration, seen on Day 11 and Day 14 post pill. From the text: FIG. 19 is a photographic representation (obtained using the XENOGEN IVIS® in vivo Imaging System) of transient turn-on of survivin promoter activity by imbedding testosterone pills in castrated SPlucTg mice: Testosterone pills were imbedded in the back of the neck of SPlucTg mice (an example shown here is the F1 5556m derived from 5196m founder) 14 days after castration (prostate tissue shrinking to the minimal size by apoptosis in the 14 days). After testosterone pill implantation, luciferase activity was monitored using in vivo imaging.
Generation of SPlucTg mice: The targeting construct, pHScyc4.08-luc, was digested with Sal I and Sac I to isolate the 8.5 kb transgene cassette (HScyc4.08-luc) from the bacterial plasmid backbone (see FIG. 2). […] Cesium chloride-purified HScyc4.08-luc DNA was microinjected into the pronuclei of day-0.5 embryos of C57BL/6 mice. Injected embryos were implanted into the oviducts of pseudo-pregnant female Swiss Webster mice. […]
(§1) Using a survivin-specific monoclonal antibody termed 12C4, we have recently shown that testis is the only human organ that highly expresses survivin (60-70% of spermatogonia) (19). Consistent with this observation, luciferase activity in SPlucTg mice was detected only in the testis of male mice but not in female mice (founder, F1 and F2). […]

In data set [6] the test system is human survivin promoter. In words: in vivo luciferase imaging of SPlucTg mice during liver injury and regeneration after CCl4. Also noted: species or system mouse. As for the experimental part:
FIG. 20 is a photographic representation (obtained using the XENOGEN IVIS® in vivo Imaging System) of dose-dependent transient turn-on of survivin promoter activity during SPlucTg mouse liver injury and regeneration using carbon tetrachloride (CCl4): A 10% of CCl4 solution formulated in corn oil was prepared. The following dose was injected intraperitoneally on Day 0: 50 μl/25 g (panel A), 100 μl/25 g (panel B), 200 μl/25 g (panel C) and 300 μl/25 g (panel D). The in vivo imaging was monitored on Day 1 (24 h), Day 2 (48 h), Day 3 (72 h), Day 4 (96 h) and Day 6 (144 h) after administration of CCl4 (arrows indicate luciferase expression). […]
as §1
Based on this observation, we tested whether we could observe luciferase activity during mouse liver regeneration after injury. […] Importantly, the mouse liver injury and luciferase activity monitored by in vivo imaging is CCl4 dose-dependent, which provides a novel basis for testing compound-induced tissue injury/toxicity.

As for `CCOc1ccc(-c2nc3ccc(-c4nc5ccc(N6CCN(C)CC6)cc5[nH]4)cc3[nH]2)cc1` [Hoechst33342], the survivin promoter/luciferase activity result in data set [1] (500 nM Hoechst33342 for 16-24 hours, A549, 2008, HCT116, PC-3 clones with pNeoHScyc4.08-luc (FIGS. 9-12)) was “upregulates survivin promoter/luciferase activity”. For the same compound, the cell death result in data set [2] (500 nM for 16-24 hours) is “does not result in significant cell death”. Also, the “survivin promoter activity and endogenous survivin gene expression” value in data set [3] was “upregulates the survivin promoter activity and endogenous survivin gene expression”.
Turning to `Cc1cc2c(c3oc(C4(C)OC4C4OC4C)cc(=O)c13)C(=O)c1c(O)c(C3CC(C)(N(C)C)C(O)C(C)O3)cc(C3CC(N(C)C)C(O)C(C)O3)c1C2=O` (stereo not shown) [hedamycin], the luciferase activity result in data set [1] (10 nM hedamycin for 16-24 hours, A549, 2008, HCT116, PC-3 clones with pNeoHScyc4.08-luc (FIGS. 5-8)) is listed as “significantly inhibited”. In addition, the cell death entry in data set [2] (10 nM for 16-24 hours) is reported as “do not show significant cell death”. Further, in data set [4], the “survivin expression and survivin promoter activity” value was “inhibits survivin expression and downregulates survivin promoter activity”.
For `C[C@]12CC[C@H]3[C@@H](CCC4=CC(=O)CC[C@@]43C)[C@@H]1CC[C@@H]2O` [testosterone], the “luciferase activity (survivin promoter activity) by in vivo imaging” value in data set [5] is “Transient induction of survivin promoter activity”; in data set [5] (listed as androgen) it was “transient luciferase activity”.
Regarding `ClC(Cl)(Cl)Cl` [CCl4, carbon tetrachloride], in data set [6] (intraperitoneal CCl4, 50, 100, 200, 300 μl/25 g), the “dose dependence of mouse liver injury and luciferase activity” value is recorded as “dose-dependent”. The “luciferase activity during liver regeneration by in vivo imaging” value in data set [6] (intraperitoneal injection of 10% CCl4 in corn oil, 50-300 μl/25 g, Day 1-6) was “strong luciferase activity”.
